Test results published in US20090306133A1, “New Acetyl Coenzyme A Carboxylase (ACC) Inhibitors And Uses In Treatments Of Obesity And Diabetes Mellitus - 087” (ASTRAZENECA AB, priority 2007, published 2009).

How the values were obtained:
[1] = molecular target: Human recombinant Acetyl-CoA Carboxylase 2 (ACC2) (Homo sapiens, UniProt O00763); experiment: Assay Y: ACC2 inhibition, inorganic phosphate (Malachite Green); type: biochemical; settings: Assay Y: room temperature, 3 hr, 15 min preincubation
Outline: (§1)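 Enzyme preincubated with compound 15 min before substrate addition; reaction run 3 h, then phosphate detected with Malachite Green at 670 nm after 10 min at room temperature. Triplicate 10-point titrations; IC50 by non-linear four-parameter curve fitting.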

[2] = molecular target: Human recombinant Acetyl-CoA Carboxylase 1 (ACC1) (Homo sapiens, UniProt Q13085); experiment: Assay Y: ACC1 inhibition, inorganic phosphate (Malachite Green); type: biochemical; settings: Assay Y: room temperature, 3 hr, 15 min preincubation
Outline: as §1

Chain of Human recombinant Acetyl-CoA Carboxylase 2 (ACC2) (O00763 whole entry): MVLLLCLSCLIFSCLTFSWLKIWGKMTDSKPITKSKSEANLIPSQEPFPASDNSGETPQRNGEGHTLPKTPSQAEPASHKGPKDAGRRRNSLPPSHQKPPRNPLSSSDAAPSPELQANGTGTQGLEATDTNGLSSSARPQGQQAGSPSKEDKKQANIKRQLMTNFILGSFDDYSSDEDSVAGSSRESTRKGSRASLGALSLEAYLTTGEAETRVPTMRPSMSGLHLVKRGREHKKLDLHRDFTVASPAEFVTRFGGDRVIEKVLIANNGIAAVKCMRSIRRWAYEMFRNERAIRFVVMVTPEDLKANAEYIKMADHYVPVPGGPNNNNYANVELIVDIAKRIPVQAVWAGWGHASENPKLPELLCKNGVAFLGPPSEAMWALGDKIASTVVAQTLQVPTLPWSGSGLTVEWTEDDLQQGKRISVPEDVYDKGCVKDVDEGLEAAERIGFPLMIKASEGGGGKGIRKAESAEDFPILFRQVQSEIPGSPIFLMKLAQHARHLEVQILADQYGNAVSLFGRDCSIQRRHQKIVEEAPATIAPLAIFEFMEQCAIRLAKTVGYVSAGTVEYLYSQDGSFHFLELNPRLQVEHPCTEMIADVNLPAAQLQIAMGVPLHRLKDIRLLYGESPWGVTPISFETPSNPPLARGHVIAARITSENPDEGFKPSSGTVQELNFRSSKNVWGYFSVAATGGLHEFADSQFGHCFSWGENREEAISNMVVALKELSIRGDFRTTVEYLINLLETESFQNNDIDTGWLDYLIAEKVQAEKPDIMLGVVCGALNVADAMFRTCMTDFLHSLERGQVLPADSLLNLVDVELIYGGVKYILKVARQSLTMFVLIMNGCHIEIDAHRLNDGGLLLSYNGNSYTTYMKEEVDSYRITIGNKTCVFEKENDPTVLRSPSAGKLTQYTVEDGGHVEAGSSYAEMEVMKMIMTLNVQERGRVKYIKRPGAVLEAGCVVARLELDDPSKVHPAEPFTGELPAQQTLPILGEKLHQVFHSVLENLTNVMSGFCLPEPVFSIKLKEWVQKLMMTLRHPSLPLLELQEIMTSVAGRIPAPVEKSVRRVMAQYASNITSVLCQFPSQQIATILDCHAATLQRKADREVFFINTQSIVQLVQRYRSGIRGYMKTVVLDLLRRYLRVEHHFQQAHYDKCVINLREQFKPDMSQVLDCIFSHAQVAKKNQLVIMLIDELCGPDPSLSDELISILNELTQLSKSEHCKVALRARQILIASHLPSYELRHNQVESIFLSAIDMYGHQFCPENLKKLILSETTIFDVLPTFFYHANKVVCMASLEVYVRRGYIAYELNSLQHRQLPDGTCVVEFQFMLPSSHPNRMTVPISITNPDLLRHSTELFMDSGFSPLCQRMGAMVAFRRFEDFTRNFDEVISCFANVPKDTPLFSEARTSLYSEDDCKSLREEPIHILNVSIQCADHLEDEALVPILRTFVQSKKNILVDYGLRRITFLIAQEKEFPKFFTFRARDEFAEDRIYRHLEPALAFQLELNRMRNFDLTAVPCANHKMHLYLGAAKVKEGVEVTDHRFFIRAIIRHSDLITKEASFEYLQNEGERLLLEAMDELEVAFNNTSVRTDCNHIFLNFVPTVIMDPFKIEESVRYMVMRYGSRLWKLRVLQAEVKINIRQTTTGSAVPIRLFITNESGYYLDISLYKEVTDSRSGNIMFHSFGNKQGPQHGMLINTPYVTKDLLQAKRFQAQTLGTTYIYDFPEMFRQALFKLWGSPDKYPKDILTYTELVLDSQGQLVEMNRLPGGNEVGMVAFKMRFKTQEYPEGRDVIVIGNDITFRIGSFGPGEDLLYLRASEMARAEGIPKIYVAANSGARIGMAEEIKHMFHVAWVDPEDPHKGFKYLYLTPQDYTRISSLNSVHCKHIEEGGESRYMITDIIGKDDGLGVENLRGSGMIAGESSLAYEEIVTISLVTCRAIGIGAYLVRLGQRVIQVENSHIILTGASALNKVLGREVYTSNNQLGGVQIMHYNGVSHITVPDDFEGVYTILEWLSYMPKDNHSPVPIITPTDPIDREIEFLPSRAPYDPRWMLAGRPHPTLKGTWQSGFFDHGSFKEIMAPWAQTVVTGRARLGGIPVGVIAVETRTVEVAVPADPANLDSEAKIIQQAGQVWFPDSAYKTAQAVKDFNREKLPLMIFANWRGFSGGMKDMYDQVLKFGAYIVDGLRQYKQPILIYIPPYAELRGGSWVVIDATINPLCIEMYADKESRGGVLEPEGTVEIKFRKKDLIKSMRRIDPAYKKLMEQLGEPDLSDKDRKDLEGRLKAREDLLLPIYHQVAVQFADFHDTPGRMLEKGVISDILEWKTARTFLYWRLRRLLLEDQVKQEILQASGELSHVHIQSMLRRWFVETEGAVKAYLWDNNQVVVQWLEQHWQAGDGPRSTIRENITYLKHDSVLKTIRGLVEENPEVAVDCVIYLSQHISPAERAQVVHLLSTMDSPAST

| Compound | IC50 [1] [nM] | IC50 [2] [nM] |
| --- | --- | --- |
| COC(=O)NCc1ccc(-c2cc(C(=O)NC[C@H]3CC[C@H](CNC(=O)OC(C)(C)C)CC3)c3ccccc3n2)cc1 [Example 104, Methyl [4-(4-{[(trans-4-{[(tert-butoxycarbonyl)amino]methyl}cyclohexyl)methyl]-carbamoyl}quinolin-2-yl)benzyl]carbamate] | 110 | 1600 |
| CC(C)(C)OC(=O)NC[C@H]1CC[C@H](CNC(=O)c2cc(-c3ccc(CC(=O)O)cc3)nc3ccccc23)CC1 [Example 107, [4-(4-{[(trans-4-{[(tert-Butoxycarbonyl)amino]methyl}cyclohexyl)methyl]-carbamoyl}quinolin-2-yl)phenyl]acetic Acid] | 210 | 2620 |
| CC(C)(C)OC(=O)NC[C@H]1CC[C@H](CNC(=O)c2cc(-c3cccc(C(=O)O)c3)nc3ccccc23)CC1 [Example 108, 3-(4-{[(trans-4-{[(tert-Butoxycarbonyl)amino]methyl}cyclohexyl)methyl]-carbamoyl}quinolin-2-yl)benzoic Acid] | 450 | 7870 |
| CN1CCN(c2ccc(-c3cc(C(=O)NC[C@H]4CC[C@H](CNC(=O)OC5CCOCC5)CC4)c4ccccc4n3)cn2)CC1 [Example 109, Tetrahydro-2H-pyran-4-yl [(trans-4-{[({2-[6-(4-methylpiperazin-1-yl)pyridin-3-yl]quinolin-4-yl}carbonyl)amino]methyl}cyclohexyl)methyl]carbamate] | 210 | 1710 |
| CN1CCC(OC(=O)NC[C@H]2CC[C@H](CNC(=O)c3cc(-c4ccc(N5CCN(C)CC5)nc4)nc4ccccc34)CC2)CC1 [Example 110, 1-Methylpiperidin-4-yl-[(trans-4-{[({2-[6-(4-methylpiperazin-1-yl)pyridin-3-yl]quinolin-4-yl}carbonyl)amino]methyl}cyclohexyl)methyl]carbamate] | 4370 | > 20000 |
| CN1CCN(c2ccc(-c3cc(C(=O)NC[C@H]4CC[C@H](CNC(=O)O[C@H]5CCOC5)CC4)c4ccccc4n3)cn2)CC1 [Example 116, (3S)-Tetrahydrofuran-3-yl-[(trans-4-{[({2-[6-(4-methylpiperazin-1-yl)pyridin-3-yl]quinolin-4-yl}carbonyl)amino]methyl}cyclohexyl)methyl]carbamate] | 180 | 1260 |

Further lines, results first:

| IC50 [1] [nM] | IC50 [2] [nM] | Compound |
| --- | --- | --- |
| 40 | 200 | CC(=O)NCc1ccc(-c2cc(C(=O)NC[C@H]3CC[C@H](CNC(=O)OC(C)(C)C)CC3)c3ccccc3n2)cc1 [Example 103, tert-Butyl [(trans-4-{[({2-[4-(acetamidomethyl)phenyl]quinolin-4-yl}carbonyl)-amino]methyl}cyclohexyl)methyl]carbamate] |
| 30 | 110 | CC(C)(C)OC(=O)NC[C@H]1CC[C@H](CNC(=O)c2cc(-c3ccc(CNC(N)=O)cc3)nc3ccccc23)CC1 [Example 105, tert-Butyl {[trans-4-({[(2-{4-[(carbamoylamino)methyl]phenyl}quinolin-4-yl)carbonyl]amino}methyl)cyclohexyl]methyl}carbamate] |
| 70 | 430 | CC(C)(C)OC(=O)NC[C@H]1CC[C@H](CNC(=O)c2cc(-c3ccc(CNS(C)(=O)=O)cc3)nc3ccccc23)CC1 [Example 106, tert-Butyl ({trans-4-[({[2-(4-{[(methylsulfonyl)amino]methyl}phenyl)quinolin-4-yl]carbonyl}amino)methyl]cyclohexyl}methyl)carbamate] |
| 410 | 960 | CN1CCN(c2ccc(-c3cc(C(=O)NC[C@H]4CC[C@H](CNC(=O)OCC(F)F)CC4)c4ccccc4n3)cn2)CC1 [Example 117, 2,2-Difluoroethyl[(trans-4-{[({2-[6-(4-methylpiperazin-1-yl)pyridin-3-yl]quinolin-4-yl}carbonyl)amino]methyl}cyclohexyl)methyl]carbamate] |
